# Where two headings read alike, the source gives them in different places.
# Experiment: Plasma pharmacokinetics after a single subcutaneous administration of LEN
# Type: in vivo, rhesus macaques
# Details: male, rhesus monkey, plasma; for concentration at 9 week: week 9 post dose; for concentration at 10 week: week 10 post dose; for concentration at 11 week: week 11 post dose; for concentration at 12 week: week 12 post dose; for concentration at 13 week: week 13 post dose; for concentration at 14 week: week 14 post dose; for concentration at 15 week: week 15 post dose; for concentration at 16 week: week 16 post dose; for concentration at 17 weeks post challenge: week 17 post challenge; for concentration at 18 weeks post challenge: week 18 post challenge; for concentration at 0 weeks post challenge: week 0 post challenge; for concentration at 1 weeks post challenge: week 1 post challenge; for concentration at 2 weeks post challenge: week 2 post challenge; for concentration at 3 weeks post challenge: week 3 post challenge; for concentration at 4 weeks post challenge: week 4 post challenge; for concentration at 5 weeks post challenge: week 5 post challenge; for concentration at 6 weeks post challenge: week 6 post challenge; for concentration at 7 weeks post challenge: week 7 post challenge; for concentration at 0.14 week / concentration at 0.43 week / concentration at 1 week / concentration at 2 week / concentration at 17 week / concentration at 18 week / concentration at 19 week / concentration at 20 week / concentration at 21 week / concentration at 22 week / concentration at 23 week / concentration at 24 week / concentration at 25 week: Indian-origin, outbred; for concentration at 0.14 week: week 0.14 post dose; for concentration at 0.43 week: week 0.43 post dose; for concentration at 1 week: week 1 post dose; for concentration at 2 week: week 2 post dose; for concentration at 17 week: week 17 post dose; for concentration at 18 week: week 18 post dose; for concentration at 19 week: week 19 post dose; for concentration at 20 week: week 20 post dose; for concentration at 21 week: week 21 post dose; for concentration at 22 week: week 22 post dose; for concentration at 23 week: week 23 post dose; for concentration at 24 week: week 24 post dose; for concentration at 25 week: week 25 post dose; for half-life: sc; for concentration at 3 weeks: week 3 post dose; for concentration at 4 weeks: week 4 post dose; for concentration at 5 weeks: week 5 post dose; for concentration at 6 weeks: week 6 post dose
# Description: All animals were housed at Bioqual Inc. For the in vivo SHIV stock titration study, 8 untreated outbred Indian-origin male rhesus macaques aged 3–5 years were challenged intrarectally per round for a total of 5 challenge rounds using increasing virus doses ranging from 0.625 to 100 TCID50, with the 100 TCID50 round performed twice for increased resolution (Supplemental Table 2). Plasma viral load was measured to confirm the infection status. […] Injection sites were monitored daily by veterinary staff for 2 weeks and then weekly through the end of study. On week 7, 11 animals were challenged by the intrarectal route with 1 mL RPMI containing 100 TCID50 SHIV-SF162P3. Whole blood was collected and processed into plasma and PBMCs as necessary for the assessment of routine hematology and clinical chemistry, viral load analysis, serology, and the bioanalysis of drug levels. Animals were considered protected if they remained SHIV negative by a plasma PCR assay and seronegative by enzyme immunoassay through week 10 after challenge.
# Rhesus plasma samples were stored frozen at –80°C and thawed, and a 50 μL aliquot of each was treated with 200 μL acetonitrile containing an internal standard. After precipitation of the protein component, a 100 μL aliquot of the supernatant was transferred to a clean 96-well plate and mixed with 200 μL water. A 10 μL aliquot of the above solution was then injected into a Q-Exactive high resolution mass spectrometer from Thermo Electron with electrospray ionization in positive mode.
# [1] = Indian-origin (outbred), subcutaneous, 50 mg/kg, Plasma LEN (Mean), 50 mg/kg sc
# [2] = Indian-origin (outbred), subcutaneous, 50 mg/kg, Plasma LEN, animal CO92, 50 mg/kg
# [3] = Indian-origin (outbred), subcutaneous, 50 mg/kg, Plasma LEN, animal V411, 50 mg/kg
# [4] = Indian-origin (outbred), subcutaneous, 50 mg/kg, Plasma LEN, animal V430, 50 mg/kg
# [5] = Indian-origin (outbred), subcutaneous, 50 mg/kg, Plasma LEN, animal V470, 50 mg/kg
# [6] = Indian-origin (outbred), subcutaneous, 75 mg/kg, Plasma LEN (Mean), 75 mg/kg sc
# [7] = Indian-origin (outbred), subcutaneous, 75 mg/kg, Plasma LEN, animal CP67, 75 mg/kg
# [8] = Indian-origin (outbred), subcutaneous, 75 mg/kg, Plasma LEN, animal V417, 75 mg/kg
# [9] = Indian-origin (outbred), subcutaneous, 75 mg/kg, Plasma LEN, animal V426, 75 mg/kg
# [10] = Indian-origin (outbred), subcutaneous, 75 mg/kg, Plasma LEN, animal V435, 75 mg/kg
# [11] = subcutaneous, 5 mg/kg, Plasma LEN (Mean), 5 mg/kg sc
# [12] = subcutaneous, 10 mg/kg, Plasma LEN (Mean), 10 mg/kg sc
# [13] = subcutaneous, 20 mg/kg, Plasma LEN (Mean), 20 mg/kg sc
# [14] = subcutaneous, 50 mg/kg, Plasma LEN (Mean), 50 mg/kg sc
# [15] = subcutaneous, 75 mg/kg, Plasma LEN (Mean), 75 mg/kg sc
# [16] = outbred Indian-origin, subcutaneous, 5 mg/kg, Plasma LEN (Mean), 5 mg/kg sc
# [17] = outbred Indian-origin, subcutaneous, 10 mg/kg, Plasma LEN (Mean), 10 mg/kg sc
# [18] = outbred Indian-origin, subcutaneous, 20 mg/kg, Plasma LEN (Mean), 20 mg/kg sc
# [19] = outbred Indian-origin, subcutaneous, 50 mg/kg, Plasma LEN (Mean), 50 mg/kg sc
# [20] = outbred Indian-origin, subcutaneous, 75 mg/kg, Plasma LEN (Mean), 75 mg/kg sc
# [21] = outbred Indian-origin, 50 mg/kg sc, mean ± SD
smiles,measurement,setting,value
"CC(C)(C#Cc1ccc(-c2ccc(Cl)c3c(NS(C)(=O)=O)nn(CC(F)(F)F)c23)c([C@H](Cc2cc(F)cc(F)c2)NC(=O)Cn2nc(C(F)(F)F)c3c2C(F)(F)[C@@H]2C[C@H]32)n1)S(C)(=O)=O [LEN, Lenacapavir]",concentration at 9 week,[1],51.7 nM
same,concentration at 10 week,[1],48.7 nM
same,concentration at 11 week,[1],45.5 nM
same,concentration at 12 week,[1],37.9 nM
same,concentration at 13 week,[1],37.9 nM
same,concentration at 14 week,[1],21 nM
same,concentration at 15 week,[1],18.4 nM
same,concentration at 16 week,[1],22.2 nM
same,concentration at 17 weeks post challenge,[2],13.6 nM
same,concentration at 18 weeks post challenge,[2],13.1 nM
same,concentration at 17 weeks post challenge,[3],2.22 nM
same,concentration at 18 weeks post challenge,[3],2 nM
same,concentration at 16 weeks post challenge,"Indian-origin (outbred), subcutaneous, 50 mg/kg, Plasma LEN, animal V430, 50 mg/kg, week 16 post challenge",1.24 nM
same,concentration at 17 weeks post challenge,[4],1 nM
same,concentration at 18 weeks post challenge,[4],1 nM
same,concentration at 17 weeks post challenge,[5],8.55 nM
same,concentration at 18 weeks post challenge,[5],10.5 nM
same,concentration at 8 week,"Indian-origin (outbred), subcutaneous, 75 mg/kg, Plasma LEN (Mean), 75 mg/kg sc, week 8 post dose",55 nM
same,concentration at 9 week,[6],72.6 nM
same,concentration at 10 week,[6],98 nM
same,concentration at 11 week,[6],71.3 nM
same,concentration at 12 week,[6],53.5 nM
same,concentration at 13 week,[6],73.8 nM
same,concentration at 14 week,[6],37.9 nM
same,concentration at 15 week,[6],24.6 nM
same,concentration at 16 week,[6],30.9 nM
same,concentration at 0 weeks post challenge,[7],154 nM
same,concentration at 1 weeks post challenge,[7],95.4 nM
same,concentration at 2 weeks post challenge,[7],136 nM
same,concentration at 3 weeks post challenge,[7],144 nM
same,concentration at 4 weeks post challenge,[7],88.1 nM
same,concentration at 5 weeks post challenge,[7],87.8 nM
same,concentration at 6 weeks post challenge,[7],97.6 nM
same,concentration at 7 weeks post challenge,[7],46.5 nM
same,concentration at 0 weeks post challenge,[8],158 nM
same,concentration at 1 weeks post challenge,[8],43.9 nM
same,concentration at 2 weeks post challenge,[8],52.5 nM
same,concentration at 3 weeks post challenge,[8],88.5 nM
same,concentration at 4 weeks post challenge,[8],69 nM
same,concentration at 5 weeks post challenge,[8],48.8 nM
same,concentration at 6 weeks post challenge,[8],57.3 nM
same,concentration at 7 weeks post challenge,[8],43.9 nM
same,concentration at 0 weeks post challenge,[9],178 nM
same,concentration at 1 weeks post challenge,[9],68 nM
same,concentration at 2 weeks post challenge,[9],89.7 nM
same,concentration at 3 weeks post challenge,[9],144 nM
same,concentration at 4 weeks post challenge,[9],117 nM
same,concentration at 5 weeks post challenge,[9],68.2 nM
same,concentration at 6 weeks post challenge,[9],132 nM
same,concentration at 7 weeks post challenge,[9],57.4 nM
same,concentration at 0 weeks post challenge,[10],28.2 nM
same,concentration at 1 weeks post challenge,[10],12.5 nM
same,concentration at 2 weeks post challenge,[10],12.4 nM
same,concentration at 3 weeks post challenge,[10],14.8 nM
same,concentration at 4 weeks post challenge,[10],11.2 nM
same,concentration at 5 weeks post challenge,[10],9.22 nM
same,concentration at 6 weeks post challenge,[10],8.59 nM
same,concentration at 0.14 week,[11],9.76 nM
same,concentration at 0.43 week,[11],5.72 nM
same,concentration at 1 week,[11],2.82 nM
same,concentration at 2 week,[11],2.96 nM
same,concentration at 0.14 week,[12],19.9 nM
same,concentration at 0.43 week,[12],13.4 nM
same,concentration at 1 week,[12],6.88 nM
same,concentration at 2 week,[12],8.58 nM
same,concentration at 0.14 week,[13],41.3 nM
same,concentration at 0.43 week,[13],17.8 nM
same,concentration at 1 week,[13],9.23 nM
same,concentration at 2 week,[13],16.6 nM
same,concentration at 0.14 week,[14],196 nM
same,concentration at 0.43 week,[14],79 nM
same,concentration at 1 week,[14],56.5 nM
same,concentration at 2 week,[14],87.1 nM
same,concentration at 17 week,[14],22.1 nM
same,concentration at 18 week,[14],17 nM
same,concentration at 19 week,[14],11.1 nM
same,concentration at 20 week,[14],8.52 nM
same,concentration at 21 week,[14],6.49 nM
same,concentration at 22 week,[14],7.23 nM
same,concentration at 23 week,[14],5.76 nM
same,concentration at 24 week,[14],6.32 nM
same,concentration at 25 week,[14],6.61 nM
same,concentration at 0.14 week,[15],498 nM
same,concentration at 0.43 week,[15],223 nM
same,concentration at 1 week,[15],162 nM
same,concentration at 2 week,[15],213 nM
same,concentration at 17 week,[15],24.5 nM
same,concentration at 18 week,[15],20.9 nM
same,concentration at 19 week,[15],16.2 nM
same,concentration at 20 week,[15],16.6 nM
same,concentration at 21 week,[15],12.3 nM
same,concentration at 22 week,[15],9.35 nM
same,concentration at 23 week,[15],10.3 nM
same,concentration at 24 week,[15],11.8 nM
same,concentration at 25 week,[15],11.6 nM
same,half-life,"outbred Indian-origin, 5-75 mg/kg sc, read-out: plasma drug half-life",14 to 56 days
same,half-life,"outbred Indian-origin, single sc dosing, range over 5-75 mg/kg groups, read-out: half-life",17 to 53 days
same,concentration at 3 weeks,[16],4.23 nM
same,concentration at 4 weeks,[16],4.14 nM
same,concentration at 5 weeks,[16],6 nM
same,concentration at 6 weeks,[16],4.42 nM
same,concentration at 7 weeks,"outbred Indian-origin, subcutaneous, 5 mg/kg, Plasma LEN (Mean), 5 mg/kg sc, week 7 post dose",5.29 nM
same,concentration at 3 weeks,[17],11.3 nM
same,concentration at 4 weeks,[17],10.2 nM
same,concentration at 5 weeks,[17],12.8 nM
same,concentration at 6 weeks,[17],7.32 nM
same,concentration at 7 weeks,"outbred Indian-origin, subcutaneous, 10 mg/kg, Plasma LEN (Mean), 10 mg/kg sc, week 7 post dose",10.1 nM
same,concentration at 3 weeks,[18],21.2 nM
same,concentration at 4 weeks,[18],23.9 nM
same,concentration at 5 weeks,[18],30.1 nM
same,concentration at 6 weeks,[18],26.8 nM
same,concentration at 7 weeks,"outbred Indian-origin, subcutaneous, 20 mg/kg, Plasma LEN (Mean), 20 mg/kg sc, week 7 post dose",27.4 nM
same,concentration at 3 weeks,[19],92.4 nM
same,concentration at 4 weeks,[19],85.3 nM
same,concentration at 5 weeks,[19],80.6 nM
same,concentration at 6 weeks,[19],71.9 nM
same,concentration at 7 weeks,"outbred Indian-origin, subcutaneous, 50 mg/kg, Plasma LEN (Mean), 50 mg/kg sc, week 7 post dose",103 nM
same,concentration at 3 weeks,[20],126 nM
same,concentration at 4 weeks,[20],95.8 nM
same,concentration at 5 weeks,[20],89.9 nM
same,concentration at 6 weeks,[20],65.1 nM
same,concentration at 7 weeks,"outbred Indian-origin, subcutaneous, 75 mg/kg, Plasma LEN (Mean), 75 mg/kg sc, week 7 post dose",129 nM
same,concentration at 7 weeks,"outbred Indian-origin, subcutaneous, LEN exposures at the time of challenge, 11 challenged animals, week 7 postdose",18 to 177 nM
same,AUC(0-t),"outbred Indian-origin, 5 mg/kg sc, mean ± SD",9.3 ± 1.9 µM·h
same,AUC(0-inf),[21],243 ± 70 µM·h
same,AUC(0-t),[21],179 ± 23 µM·h
same,Cmax,[21],200 ± 74 nM

# — PMC10425210 (The Journal of Clinical Investigation, 2023)
